Data published in article PMC10178204, “Peptaibol Analogs Show Potent Antibacterial Activity against Multidrug Resistant Opportunistic Pathogens” (International Journal of Molecular Sciences, 2023).
Values after ≈ are worked out from the molar mass of the structure shown. Values joined by “and” are separate entries in the source; they are usually repeats but may differ in a detail not shown here. Equal values may be shown once. Non-standard residues stand in square brackets, D forms with d. Residues, ends and D or L forms follow the SMILES beside them. *: point of attachment. Leu(ol) = CC(C)C[C@H](N)CO; Octanoyl = CCCCCCCC(=O)*; Aib = CC(C)(N)C(=O)O

Tests used:
[1] = tested on: P. aeruginosa VA-182/00 (VIM-2); settings: MHB, 5 × 10^5 CFU/mL, 18 h, 35 °C, triplicate
Description: (§1) The minimum inhibitory concentration (MIC) and the minimum bactericidal concentration (MBC) of the compounds were determined in triplicate using Mueller–Hinton broth (MHB). […] Therefore, we decided to dissolve all peptides in DMSO to a final concentration of 25 mg/mL, for consistency. The bacteria inoculum was 5 × 10^5 CFU/mL, as recommended by CLSI (Document M07-A10, 2015). […] Reference-type strains, including representatives of both Gram-positive bacteria (Bacillus subtilis ATCC 6633, Enterococcus faecalis ATCC 29212, Staphylococcus aureus ATCC 25923, the methicillin-resistant Staphylococcus aureus ATCC 43300 (MRSA), Streptococcus pyogenes ATCC 12344) and Gram-negative bacteria (Escherichia coli CCUGT, Klebsiella pneumoniae ATCC 13833, Pseudomonas aeruginosa ATCC 27853, and Acinetobacter baumannii ATCC 17978), were acquired from ATCC or CCUG culture collections. Other antibiotic-resistant clinical isolates were present in our collection at the University Teaching Hospital (Azienda Ospedaliero-Universitaria Senese ‘Santa Maria alle Scotte’) in Siena, Tuscany, Italy. Specifically, MDR carbapenem-hydrolyzing class D β-lactamase-producing Acinetobacter baumannii and metallo-β-lactamase-producing Pseudomonas aeruginosa were used in this study (Table 4).

[2] = tested on: A. baumannii SI-310 (OXA-24); settings: colistin-resistant isolate; MHB, 5 × 10^5 CFU/mL, 18 h, 35 °C, triplicate
Description: as §1

[3] = tested on: S. aureus ATCC 43300 (MRSA); settings: MHB, 5 × 10^5 CFU/mL, 18 h, 35 °C, triplicate
Description: as §1

[4] = tested on: A. baumannii SI-12 (OXA-23); settings: MHB, 5 × 10^5 CFU/mL, 18 h, 35 °C, triplicate
Description: as §1

[5] = tested on: A. baumannii SI-648 (OXA-23, OXA-51-like); settings: MHB, 5 × 10^5 CFU/mL, 18 h, 35 °C, triplicate
Description: as §1

[6] = tested on: P. aeruginosa 506/99 (VIM-2); settings: MHB, 5 × 10^5 CFU/mL, 18 h, 35 °C, triplicate
Description: as §1

[7] = tested on: P. aeruginosa VR-143/97 (VIM-1); settings: MHB, 5 × 10^5 CFU/mL, 18 h, 35 °C, triplicate
Description: as §1

[8] = tested on: P. aeruginosa 101/1477 (IMP-1); settings: MHB, 5 × 10^5 CFU/mL, 18 h, 35 °C, triplicate
Description: as §1

[9] = tested on: Staphylococcus aureus ATCC 25923; settings: MHB, 5 × 10^5 CFU/mL, 18 h, 35 °C, triplicate
Procedure, shortened: (§2)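 Broth microdilution in Mueller–Hinton broth, run in triplicate, inoculum 5 × 10^5 CFU/mL per CLSI M07-A10; MIC and MBC both determined. Peptides dissolved in DMSO at 25 mg/mL as stock.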

[10] = tested on: Acinetobacter baumannii ATCC 17978; settings: for MBC Aba / MIC Aba: MHB, 5 × 10^5 CFU/mL, 18 h, 35 °C, triplicate; for MIC against A. baumannii, in molar units: corresponding to 2 and 8 μg/mL
Procedure, shortened: as §2

[11] = tested on: Streptococcus pyogenes ATCC 12344; settings: MHB, 5 × 10^5 CFU/mL, 18 h, 35 °C, triplicate
Procedure, shortened: as §2

[12] = tested on: reference Gram-positive and Gram-negative strains; settings: for lowest MIC: lowest value over the eight reference strains
Procedure, shortened: as §2

Escherichia coli CCUGT = settings: MHB, 5 × 10^5 CFU/mL, 18 h, 35 °C, triplicate
Procedure, shortened: as §2

[13] = tested on: Bacillus subtilis ATCC 6633; settings: MHB, 5 × 10^5 CFU/mL, 18 h, 35 °C, triplicate
Procedure, shortened: as §2

[14] = tested on: Klebsiella pneumoniae ATCC 13833; settings: MHB, 5 × 10^5 CFU/mL, 18 h, 35 °C, triplicate
Procedure, shortened: as §2

[15] = tested on: Pseudomonas aeruginosa ATCC 27853; settings: MHB, 5 × 10^5 CFU/mL, 18 h, 35 °C, triplicate
Procedure, shortened: as §2

[16] = tested on: Enterococcus faecalis ATCC 29212; settings: MHB, 5 × 10^5 CFU/mL, 18 h, 35 °C, triplicate
Procedure, shortened: as §2

[17] = tested on: blood agar plate (Columbia CNA Agar); test: Hemolysis on blood agar plate; settings: 50 μg peptide (2 μL of 25 mg/mL in DMSO) spotted on blood agar, 35 ± 2 °C, 24 h, visual, triplicate
Procedure, shortened: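 Peptides (50 μg, from 25 mg/mL DMSO solution) spotted on Columbia CNA blood agar, incubated at 35 ± 2 °C for 24 h. Hemolysis zone diameter measured visually, averaged over triplicates. Triton X-100 positive, DMSO negative control.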

Row | Molecule | MBC P. aeruginosa VA-182/00 (VIM-2) [1] | MIC P. aeruginosa VA-182/00 (VIM-2) [1] | MBC A. baumannii SI-310 (OXA-24) [2] | MIC A. baumannii SI-310 (OXA-24) [2] | MBC S. aureus ATCC 43300 (MRSA) [3] | MIC S. aureus ATCC 43300 (MRSA) [3] | MBC A. baumannii SI-12 (OXA-23) [4] | MIC A. baumannii SI-12 (OXA-23) [4] | MBC A. baumannii SI-648 (OXA-23, OXA-51-like) [5] | MIC A. baumannii SI-648 (OXA-23, OXA-51-like) [5] | MBC P. aeruginosa 506/99 (VIM-2) [6] | MIC P. aeruginosa 506/99 (VIM-2) [6] | MBC P. aeruginosa VR-143/97 (VIM-1) [7] | MIC P. aeruginosa VR-143/97 (VIM-1) [7] | MBC P. aeruginosa 101/1477 (IMP-1) [8] | MIC P. aeruginosa 101/1477 (IMP-1) [8] | MIC Sau [9] | MBC Aba [10] | MIC Aba [10] | MIC against A. baumannii, in molar units [10] | also measured
1 | 1-Oct-Aib-Gly-Leu-Aib-Lys-Lys-Leu-Aib-Lys-Ile-Lol [Peptide 5] | 8 µg/mL | 8 µg/mL | 4 µg/mL | 2 µg/mL | 2 µg/mL | 2 µg/mL | 4 µg/mL | 4 μg/mL and 4/4 μg/mL | 4 µg/mL | 4 μg/mL and 4/4 μg/mL | 8 µg/mL | 8 µg/mL | 8 µg/mL | 8 µg/mL | 8 µg/mL | 8 µg/mL | 16 µg/mL | 16 µg/mL | 4 µg/mL | 1.8 to 7.2 µM | MBC Sau [9]: 16 µg/mL; MBC Spy [11]: 4 µg/mL; MIC Spy [11]: 4 µg/mL; MIC against six of the eight bacterial strains tested ([12]; reference panel): 4 to 8 µg/mL; MIC against the other two strains ([12]; reference panel): 16 µg/mL; MBC Eco (Escherichia coli CCUGT): > 16 µg/mL; MIC Eco (Escherichia coli CCUGT): 8 µg/mL; MBC Bsu [13]: 16 µg/mL; MIC Bsu [13]: 8 µg/mL; MBC Kpn [14]: 16 µg/mL; MIC Kpn [14]: 16 µg/mL; MBC Pae [15]: > 16 µg/mL; MIC Pae [15]: 8 µg/mL; MBC Efa [16]: 8 µg/mL; MIC Efa [16]: 4 µg/mL
2 | CCCCCCCC(=O)NC(C)(C)C(=O)N[C@@H](CCCCN)C(=O)N[C@@H](CC(C)C)C(=O)NC(C)(C)C(=O)N[C@@H](CCCCN)C(=O)NCC(=O)N[C@@H](CC(C)C)C(=O)NC(C)(C)C(=O)NCC(=O)N[C@H](C(=O)N[C@H](CO)CC(C)C)[C@@H](C)CC [Peptide 1, 1-Oct-Aib-Lys-Leu-Aib-Lys-Gly-Leu-Aib-Gly-Ile-Lol] (Octanoyl-[Aib]KL[Aib]KGL[Aib]GI[Leu(ol)]) | 16 µg/mL (≈ 13.2 µM) | 16 µg/mL (≈ 13.2 µM) | 4 µg/mL (≈ 3.31 µM) | 4 μg/mL and 4/4 μg/mL | 2 µg/mL (≈ 1.65 µM) | 2 µg/mL (≈ 1.65 µM) | 8 µg/mL (≈ 6.62 µM) | 4 µg/mL (≈ 3.31 µM) | 16 µg/mL (≈ 13.2 µM) | 8 µg/mL (≈ 6.62 µM) | 32 µg/mL (≈ 26.5 µM) | 16 µg/mL (≈ 13.2 µM) | 32 µg/mL (≈ 26.5 µM) | 32 µg/mL (≈ 26.5 µM) | 16 µg/mL (≈ 13.2 µM) | 8 µg/mL (≈ 6.62 µM) | 16 µg/mL (≈ 13.2 µM) | 16 µg/mL (≈ 13.2 µM) | 4 µg/mL (≈ 3.31 µM) | 1.8 to 7.2 µM | MBC Spy [11]: 4 µg/mL (≈ 3.31 µM); MIC Spy [11]: 2 µg/mL (≈ 1.65 µM); lowest MIC [12]: 2 µg/mL; MBC Eco (Escherichia coli CCUGT): 32 µg/mL (≈ 26.5 µM); MIC Eco (Escherichia coli CCUGT): 32 µg/mL (≈ 26.5 µM); MBC Bsu [13]: 16 µg/mL (≈ 13.2 µM); MIC Bsu [13]: 4 µg/mL (≈ 3.31 µM); MIC Kpn [14]: > 128 µg/mL; MIC Pae [15]: 16 µg/mL (≈ 13.2 µM); MBC Efa [16]: 2 µg/mL (≈ 1.65 µM); MIC Efa [16]: 2 µg/mL (≈ 1.65 µM)
3 | CCCCCCCC(=O)NC(C)(C)C(=O)N[C@@H](CCCCN)C(=O)N[C@@H](CC(C)C)C(=O)NC(C)(C)C(=O)N[C@@H](CCCCN)C(=O)N[C@@H](CCCCN)C(=O)N[C@@H](CC(C)C)C(=O)NC(C)(C)C(=O)NCC(=O)N[C@H](C(=O)N[C@@H](CC(C)C)C(N)=O)[C@@H](C)CC [Peptide 11, 1-Oct-Aib-Lys-Leu-Aib-Lys-Lys-Leu-Aib-Gly-Ile-Leu-NH2] (Octanoyl-[Aib]KL[Aib]KKL[Aib]GIL-NH2) | 32 µg/mL (≈ 24.8 µM) | 8 µg/mL (≈ 6.19 µM) | 4 µg/mL (≈ 3.09 µM) | 2 µg/mL (≈ 1.55 µM) | 2 µg/mL (≈ 1.55 µM) | 2 µg/mL (≈ 1.55 µM) | 32 µg/mL (≈ 24.8 µM) | 32 μg/mL and 32/32 μg/mL | 4 µg/mL (≈ 3.09 µM) | 2 µg/mL (≈ 1.55 µM) | 16 µg/mL (≈ 12.4 µM) | 8 µg/mL (≈ 6.19 µM) | 8 µg/mL (≈ 6.19 µM) | 8 µg/mL (≈ 6.19 µM) | 8 µg/mL (≈ 6.19 µM) | 8 µg/mL (≈ 6.19 µM) | 16 µg/mL (≈ 12.4 µM) | 2 µg/mL (≈ 1.55 µM) | 2 µg/mL (≈ 1.55 µM) | 1.8 to 7.2 µM | Hemolysis (class) [17]: -; MBC Spy [11]: 16 µg/mL (≈ 12.4 µM); MIC Spy [11]: 4 µg/mL (≈ 3.09 µM); lowest MIC [12]: 2 µg/mL; MBC Eco (Escherichia coli CCUGT): 128 µg/mL (≈ 99 µM); MIC Eco (Escherichia coli CCUGT): 16 µg/mL (≈ 12.4 µM); MBC Bsu [13]: 16 µg/mL (≈ 12.4 µM); MIC Bsu [13]: 2 µg/mL (≈ 1.55 µM); MIC Kpn [14]: > 128 µg/mL; MBC Efa [16]: 32 µg/mL (≈ 24.8 µM); MIC Efa [16]: 4 µg/mL (≈ 3.09 µM)
